# Literature values in patent publication US7812020B2, “Substituted pyridine derivatives” (priority 2005, dated 2010).
# Legend:
# [1] = test system: amygdala kindling model; details: complex partial seizures
# [2] = test system: rat
# [3] = test system: rats and mice; details: oral and intraperitoneal administration; electrically induced seizures, pentylenetetrazole, picrotoxin, NMDA, DBA/2 mouse
# [4] = test system: rat; details: following kainic acid-induced status epilepticus in the rat
# [5] = test system: epileptic patients; details: clinical trials
# [6] = test system: K(+) current in neuronal cells
# [7] = test system: animal models of neuropathic pain; details: in vivo
# [8] = test system: animal models of anxiety-like behaviour; details: in vivo
structure (smiles),measurement,setting,value
"CCOC(=O)Nc1ccc(NCc2ccc(F)cc2)cc1N [Retigabine, N-(2-amino-4-(4-fluorobenzylamino)-phenyl)carbamic acid ethyl ester]",activity in amygdala kindling model,[1],active
same,progression of hippocampal kindling,[2],delay the progression of hippocampal kindling
same,anticonvulsant activity,[3],active
same,limbic neurodegeneration and markers of apoptosis,[4],prevent limbic neurodegeneration and the expression of markers of apoptosis
same,incidence of seizures,[5],effectiveness in reducing the incidence of seizures
same,effect on K(+) current,[6],activate a K(+) current
same,effect in neuropathic pain models,[7],beneficial
same,activity in anxiety-like behaviour models,[8],active
